Measured values published in US6984642B1, “Substituted phenylcyclohexane carboxylic acid amides and their use as adenosine uptake inhibitors” (Bayer Aktiengesellschaft, priority 1999, dated 2006).

These molecules were tested on adenosine-uptake system (assay: Inhibition of adenosine uptake in rabbit erythrocytes). Details: Oryctolagus cuniculus, 0.25 h; rabbit erythrocyte preparation; concentration at which 50% of the adenosine originally employed is still present 15 min after addition; 30° C.
Type: cell-based
Method: 2. Inhibition of Adenosine Uptake in Rabbit Erythrocytes by the Compounds According to the Invention.
The capability of substances to influence the adenosine-uptake system is investigated by determining the inhibitory effect of the substances on functional adenosine uptake. For the functional adenosine-uptake test, an erythrocyte preparation from rabbit blood is used. The blood is drawn intravenously using citrate (3 ml Monovette 9NC from Sarstedt) as anticoagulant. The blood is centrifuged at 3000 g for 5 min and the erythrocytes are suspended in 10 mM MOPS/0.9% NaCl solution pH 7.4. The suspension is diluted to one hundredth of the original blood volume. In each case 990 μl of the suspension are admixed with 10 μl of a suitable concentration of the substance to be investigated, and the mixture is incubated at 30° C. for 5 min. 5 μl of a 4 mM adenosine solution are then added, and the mixture is incubated at 30° C. for another 15 min. The samples are then centrifuged at 3000 g for 5 min and in each case […] of the supernatant are admixed with 28 μl of 70% strength HClO4, allowed to stand in an ice bath for 30 min and centrifuged at 16,000 g for 3 min, and 350 μl of the sample are neutralized using 30 μl of 5N NaOH. 50 μl of the sample are applied to a column (Waters Symmetry C18 […] 3.9×150 mm). A Spherisorb ODS II 5 μm 4.6×10 mm column is used as precolumn. The mobile phase used is a gradient of 50 mM KH2PO^4/5 mM tributylamine pH 7 (mobile phase A) and a mixture of mobile phase A/methanol 1/1 (mobile phase B). The gradient is from 10-40% B, at a flow rate of 0.5 ml/min. The adenosine which is present is quantified by its absorption at 260 nm, as are the hyoxanthine and inosine formed.

SMILES | IC50 [nM]
NC(=O)[C@@H](NC(=O)[C@@H]1CCCC[C@H]1c1ccc(Cn2c(CN3CCOCC3)nc3cccnc32)cc1)c1ccccc1 [Example 3, (S)-N-{{(1R, 2R)-{4-{2-[2-(Morpholin-4-yl-methyl)-1H-pyrido[2,3-d]-imidazol-1-yl]methyl}-phenyl}-cyclohex-1-yl}carbonyl}-phenylglycinamide] | 15
CC(C)N1CCN(c2nc3ccccc3n2Cc2ccc([C@@H]3CCCC[C@H]3C(=O)N[C@H](C(N)=O)c3ccccc3)cc2)CC1 [Example 8] | 20
NC(=O)[C@@H](NC(=O)[C@@H]1CCCC[C@H]1c1ccc(Cn2c(N3CCNCC3)nc3ccccc32)cc1)c1ccccc1 [Example 10] | 25
NC(=O)[C@@H](NC(=O)[C@@H]1CCCC[C@H]1c1ccc(Cn2c(COCCO)nc3cccnc32)cc1)c1ccccc1 [Example 16] | 10
